{"source": "patent US7339061B2", "about": "“3-(4-oxo-4H-chromen-2-yl)-(1H)-quinolin-4-one derivatives, method for preparing same and pharmaceutical compositions containing same” (Les Laboratoires Servier, priority 2002, dated 2008)", "key": {"[1]": {"tested_on": "prostate cancer line (LN CaP)", "assay": "Apoptotic effect, TUNEL test", "type": "cell-based", "details": "LN CaP cells incubated at the IC50 concentration, 8 to 96 hours; early = 8 hours", "procedure": "Study of the pro-apoptotic effects of compounds of the invention is carried out on a prostate cancer line (LN CaP). The cells were incubated for periods ranging from 8 to 96 hours at the IC50 concentration.\nThe TUNEL test was then carried out according to the method described by Sgonc in Trends Genetics—1994; 10:41."}, "[2]": {"tested_on": "Eleven cell lines from cancers of different origins and sites (lung, breast, prostate, colon, blood, bladder, skin, ovary, brain)", "assay": "In vitro cytotoxicity, MTT test, 96 hours incubation", "type": "cell-based", "details": "lines to which the stated IC50 range applies", "procedure": "Eleven cell lines from cancers of different origins and sites (lung, breast, prostate, colon, blood, bladder, skin, ovary, brain) are cultured in order to study the various compounds in comparison to the reference substance.\nThe cells are incubated for 96 hours with various concentrations of compounds of the invention.\nThe in vitro cytotoxic activity is determined by the MTT [3-(4,5-dimethylthiazol-2-yl)-2,5-diphenyltetrazolium bromide] test as described by Carmichael in Cancer Res.—1987; 47 (4): 936-942.\nThe activity is expressed in terms of the IC50, that is to say the concentration which inhibits proliferation of the tumour cells by 50%."}, "lung cancer cells": {"tested_on": "lung cancer cells", "assay": "In vitro synergistic effect with anti-cancer agent (MTT test, Chou and Talabay analysis), lung cancer cells", "type": "cell-based", "details": "96 hours, five concentrations of compound and of cisplatin (CDDP)", "procedure": "(§1) Three cell lines which are sensitive to three anti-cancer agents are used: breast cancer cells in association with treatment with tamoxifen (TXL), lung cancer cells in association with treatment with cisplatin (CDDP), and colon cancer cells in association with treatment with SN38, a metabolite of CPT-11 (irinotecan).\n(§2) The tumour cells are incubated for 96 hours together with five different concentrations of each of the compounds of the invention and five concentrations of each of the anti-cancer agents in association.\n(§3) The in vitro cytotoxic activity is determined by the MTT test described in Example 24. Analysis of the data is carried out according to the method of Chou and Talabay, published in Trends Pharmaceutical Sci.—1983; 4:450."}, "breast cancer cells": {"tested_on": "breast cancer cells", "assay": "In vitro synergistic effect with anti-cancer agent (MTT test, Chou and Talabay analysis), breast cancer cells", "type": "cell-based", "details": "96 hours, five concentrations of compound and of anti-cancer agent; method names tamoxifen (TXL) on breast cancer cells", "procedure": "as §1, §2, §3"}}}
{"smiles": "O=c1cc(-c2cn(-c3ccccc3)c3ccccc3c2=O)oc2cc(O)ccc12", "note": "[Example 2, 3-(7-Hydroxy-4-oxo-4H-1-benzopyran-2-yl)-1-phenyl-1H-quinolin-4-one]", "values": [{"measurement": "melting point", "result": "295 to 300", "unit": "°C"}]}
{"smiles": "O=c1c(-c2cc(=O)c3c(O)cccc3o2)cn(-c2ccccc2)c2ccccc12", "note": "[Example 6, 3-(5-Hydroxy-4-oxo-4H-1-benzopyran-2-yl)-1-phenyl-1H-quinolin-4-one]", "values": [{"measurement": "melting point", "result": "> 300", "unit": "°C"}, {"measurement": "apoptosis (TUNEL test)", "setting": "[1]", "result": "very high apoptosis"}]}
{"smiles": "COc1cc(O)c2c(=O)cc(-c3cn(-c4ccccc4)c4ccccc4c3=O)oc2c1", "note": "[Example 7, 3-(5-Hydroxy-7-methoxy-4-oxo-4H-1-benzopyran-2-yl)-1-phenyl-1H-quinolin-4-one]", "values": [{"measurement": "melting point", "result": "295 to 296", "unit": "°C"}]}
{"smiles": "O=c1cc(-c2cn(-c3ccccc3)c3ccccc3c2=O)oc2ccccc12", "note": "[Example 8, 3-(4-Oxo-4H-1-benzopyran-2-yl)-1-phenyl-1H-quinolin-4-one]", "values": [{"measurement": "melting point", "result": "327 to 328", "unit": "°C"}]}
{"smiles": "COc1cc(OC)c2c(=O)cc(-c3cn(-c4ccccc4)c4ccccc4c3=O)oc2c1C1=CCN(C)CC1", "note": "[Example 9, 3-[5,7-Dimethoxy-8-(1-methyl-1,2,5,6-tetrahydropyridin-4-yl)-4-oxo-4H-1-benzopyran-2-yl]-1-phenyl-1H-1,4-dihydroquinolin-4-one]", "values": [{"measurement": "number of the 11 lines tested with respect to which the compound has cytotoxic activity", "setting": "[2]", "result": "8 of the 11"}]}
{"smiles": "CN1CC=C(c2c(O)cc(O)c3c(=O)cc(-c4cn(-c5ccccc5)c5ccccc5c4=O)oc23)CC1", "note": "[Example 14, 3-[5,7-Dihydroxy-8-(1-methyl-1,2,5,6-tetrahydropyridin-4-yl)4-oxo-4H-1-benzopyran-2-yl]-1-phenyl-1H-1,4-dihydroquinolin-4-one]", "values": [{"measurement": "synergistic effect with cisplatin", "setting": "lung cancer cells", "result": "synergistic effect"}, {"measurement": "synergistic effect with paclitaxel", "setting": "breast cancer cells", "result": "synergistic effect"}, {"measurement": "number of the 11 lines tested with respect to which the compound has cytotoxic activity", "setting": "[2]", "result": "5 of the 11"}]}
{"smiles": "O=c1c(-c2cc(=O)c3c(O)cc(O)c(C4=CCN(Cc5ccccc5)CC4)c3o2)cn(-c2ccccc2)c2ccccc12", "note": "[Example 16, 3-[5,7-Dihydroxy-8-(1-benzyl-1,2,5,6-tetrahydropyridin-4-yl)-4-oxo-4H-1-benzopyran-2-yl]-1-phenyl-1H-1,4-dihydroquinolin-4-one]", "values": [{"measurement": "synergistic effect with cisplatin", "setting": "lung cancer cells", "result": "synergistic effect"}, {"measurement": "synergistic effect with paclitaxel", "setting": "breast cancer cells", "result": "synergistic effect"}]}
